Assay results taken from ChEMBL document CHEMBL3045354, “Synthesis, molecular modeling, and biological evaluation of 1,2,4-triazole derivatives containing pyridine as potential anti-tumor agents” (Med Chem Res, 2013).
Calls of active or inactive are those of the source. The rule behind the calls is not given here.

Columns and labels:
[1] = system: MCF7; assay: Antiproliferative activity against Homo sapiens (human) MCF7 cells assessed as growth inhibition after 48 hr by MTT assay; settings: MCF7, 48 h
[2] = system: HepG2; assay: Antiproliferative activity against Homo sapiens (human) HepG2 cells assessed as growth inhibition after 48 hr by MTT assay; settings: HepG2, 48 h
[3] = system: HCT-116; assay: Antiproliferative activity against Homo sapiens (human) HCT116 cells assessed as growth inhibition after 48 hr by MTT assay; settings: HCT-116, 48 h
[4] = system: HCT-116; assay: Induction of apoptosis in Homo sapiens (human) HCT116 cells assessed as necrotic cells at 0.5 uM after 24 hr by Annexin V-FITC/PI staining based flow cytometry (reference value: 0.60%); type: functional
[5] = system: HCT-116; assay: Induction of apoptosis in Homo sapiens (human) HCT116 cells assessed as early apoptotic cells at 8 uM after 24 hr by Annexin V-FITC/PI staining based flow cytometry (reference value: 3.73%); type: functional
[6] = system: HCT-116; assay: Induction of apoptosis in Homo sapiens (human) HCT116 cells assessed as early apoptotic cells at 0.5 uM after 24 hr by Annexin V-FITC/PI staining based flow cytometry (reference value: 3.73%); type: functional
[7] = system: HCT-116; assay: Induction of apoptosis in Homo sapiens (human) HCT116 cells assessed as necrotic cells at 2 uM after 24 hr by Annexin V-FITC/PI staining based flow cytometry (reference value: 0.60%); type: functional
[8] = system: HCT-116; assay: Induction of apoptosis in Homo sapiens (human) HCT116 cells assessed as viable cells at 8 uM after 24 hr by Annexin V-FITC/PI staining based flow cytometry (reference value: 92.80%); type: functional; settings: HCT-116, 24 h, read-out: Activity
[9] = system: HCT-116; assay: Induction of apoptosis in Homo sapiens (human) HCT116 cells assessed as viable cells at 0.5 uM after 24 hr by Annexin V-FITC/PI staining based flow cytometry (reference value: 92.80%); type: functional; settings: HCT-116, 24 h, read-out: Activity
[10] = system: HCT-116; assay: Induction of apoptosis in Homo sapiens (human) HCT116 cells assessed as viable cells at 2 uM after 24 hr by Annexin V-FITC/PI staining based flow cytometry (reference value: 92.80%); type: functional; settings: HCT-116, 24 h, read-out: Activity
[11] = system: HCT-116; assay: Induction of apoptosis in Homo sapiens (human) HCT116 cells assessed as late apoptotic cells at 0.5 uM after 24 hr by Annexin V-FITC/PI staining based flow cytometry (reference value: 2.87%); type: functional
[12] = system: HCT-116; assay: Induction of apoptosis in Homo sapiens (human) HCT116 cells assessed as necrotic cells at 8 uM after 24 hr by Annexin V-FITC/PI staining based flow cytometry (reference value: 0.60%); type: functional
[13] = system: HCT-116; assay: Induction of apoptosis in Homo sapiens (human) HCT116 cells assessed as increase in cleaved caspase-3 level at 0.5 to 8 uM by Western blot analysis; type: functional, cell-based
[14] = system: HCT-116; assay: Induction of apoptosis in Homo sapiens (human) HCT116 cells assessed as PARP cleavage at 0.5 to 8 uM by Western blot analysis; type: functional, cell-based
[15] = system: HCT-116; assay: Induction of apoptosis in Homo sapiens (human) HCT116 cells assessed as late apoptotic cells at 2 uM after 24 hr by Annexin V-FITC/PI staining based flow cytometry (reference value: 2.87%); type: functional
[16] = system: HCT-116; assay: Induction of apoptosis in Homo sapiens (human) HCT116 cells assessed as late apoptotic cells at 8 uM after 24 hr by Annexin V-FITC/PI staining based flow cytometry (reference value: 2.87%); type: functional
[17] = system: HCT-116; assay: Induction of apoptosis in Homo sapiens (human) HCT116 cells assessed as early apoptotic cells at 2 uM after 24 hr by Annexin V-FITC/PI staining based flow cytometry (reference value: 3.73%); type: functional

| IC50 [1] [µM] | IC50 [2] [µM] | IC50 [3] [µM] | SMILES | other results |
| --- | --- | --- | --- | --- |
| 10.5 | 11.2 | 9.82 | Clc1cccc(CSc2nnc(-c3ccncc3)n2-c2ccccc2)c1 | – |
| 10 | 7.04 | 8.17 | Brc1cccc(CSc2nnc(-c3ccncc3)n2-c2ccccc2)c1 | Activity [4]: 0.28%; Activity [5]: 12.3%; Activity [6]: 8.24%; Activity [7]: 1.08%; viability at 8 µM [8]: 50.4%; viability at 0.5 µM [9]: 88.2%; viability at 2 µM [10]: 78.3%; Activity [11]: 3.24%; Activity [12]: 5.59%; Activity [13]: Active; Activity [14]: Active; Activity [15]: 9.25%; Activity [16]: 31.69%; Activity [17]: 11.39% |
| 15.3 | 15.9 | 10.2 | O=C(CSc1nnc(-c2ccncc2)n1-c1ccccc1)N/N=C/c1ccc([N+](=O)[O-])cc1 | – |
| > 50 | 24.4 | > 50 | O=C(CSc1nnc(-c2ccncc2)n1-c1ccccc1)N/N=C/c1cccc(F)c1 | – |
| 18.1 | 15.7 | 13.8 | Clc1ccccc1CSc1nnc(-c2ccncc2)n1-c1ccccc1 | – |
| 6.46 | 4.39 | 1.99 | O=C(CSc1nnc(-c2ccncc2)n1-c1ccccc1)N/N=C/c1cc(Br)ccc1O | Activity [4]: 0.72%; Activity [5]: 27.35%; Activity [6]: 5.99%; Activity [7]: 2.44%; viability at 8 µM [8]: 31.6%; viability at 0.5 µM [9]: 90%; viability at 2 µM [10]: 86.2%; Activity [11]: 3.27%; Activity [12]: 3.04%; Activity [13]: Active; Activity [14]: Active; Activity [15]: 12.47%; Activity [16]: 38.01%; Activity [17]: 18.85% |
| 21.1 | 15.6 | 12.8 | Fc1ccc(CSc2nnc(-c3ccncc3)n2-c2ccccc2)cc1 | – |
| 16.1 | 17.1 | 20.2 | Brc1ccccc1CSc1nnc(-c2ccncc2)n1-c1ccccc1 | – |
| 22.4 | 12.9 | 16.9 | c1ccc(CSc2nnc(-c3ccncc3)n2-c2ccccc2)cc1 | – |
| 22.4 | 15.2 | 18 | O=C(CSc1nnc(-c2ccncc2)n1-c1ccccc1)N/N=C/c1ccccc1F | – |
| 23.6 | 18.6 | 14.7 | O=C(CSc1nnc(-c2ccncc2)n1-c1ccccc1)N/N=C/c1ccccc1 | – |
| 22.8 | > 50 | 23.8 | O=[N+]([O-])c1ccc(CSc2nnc(-c3ccncc3)n2-c2ccccc2)cc1 | – |
| > 50 | > 50 | > 50 | O=[N+]([O-])c1ccccc1CSc1nnc(-c2ccncc2)n1-c1ccccc1 | – |
| 23.7 | 27.1 | 19.2 | COc1ccc(/C=N/NC(=O)CSc2nnc(-c3ccncc3)n2-c2ccccc2)cc1 | – |
| 18.3 | 22 | 19.8 | O=[N+]([O-])c1cccc(CSc2nnc(-c3ccncc3)n2-c2ccccc2)c1 | – |
| 14.1 | 10.2 | 11.4 | Fc1ccc(CSc2nnc(-c3ccncc3)n2-c2ccccc2)c(F)c1 | – |
| 8.44 | 7.59 | 4.5 | O=C(CSc1nnc(-c2ccncc2)n1-c1ccccc1)N/N=C/c1cc(Br)cc(Br)c1O | – |
| 10 | 11.3 | 7.06 | O=C(CSc1nnc(-c2ccncc2)n1-c1ccccc1)N/N=C/c1ccccc1O | – |
| 9.93 | 11 | 5.74 | O=C(CSc1nnc(-c2ccncc2)n1-c1ccccc1)N/N=C/c1ccc(Cl)cc1 | – |
| > 50 | > 50 | 12 | Fc1ccccc1CSc1nnc(-c2ccncc2)n1-c1ccccc1 | – |
| 11.2 | 8.28 | 6.15 | O=C(CSc1nnc(-c2ccncc2)n1-c1ccccc1)N/N=C/C=C/c1ccccc1 | – |
| > 50 | > 50 | > 50 | O=C(CSc1nnc(-c2ccncc2)n1-c1ccccc1)N/N=C/c1ccc(O)cc1 | – |
| 7.04 | 5.99 | 4.5 | O=C(CSc1nnc(-c2ccncc2)n1-c1ccccc1)N/N=C/c1ccc(Br)cc1 | – |
| 19.7 | 16.9 | 14.7 | O=C(CSc1nnc(-c2ccncc2)n1-c1ccccc1)N/N=C/c1ccc(O)c(O)c1 | – |
| 13.3 | 16.9 | 10.7 | Clc1ccc(CSc2nnc(-c3ccncc3)n2-c2ccccc2)cc1 | – |
| 12.6 | 12.9 | 11.1 | Brc1ccc(CSc2nnc(-c3ccncc3)n2-c2ccccc2)cc1 | – |
| > 50 | > 50 | 22.1 | Fc1cccc(F)c1CSc1nnc(-c2ccncc2)n1-c1ccccc1 | – |
| 12.3 | 9.33 | 7.04 | O=C(CSc1nnc(-c2ccncc2)n1-c1ccccc1)N/N=C/c1ccc(F)cc1 | – |
